Measured values published in PubChem BioAssay AID328 (DTP/NCI, 2004).
“And” between values parts separate entries of the source, which are not always exact repeats. Equal values may be shown once. Inconclusive results and toxic doses are left out.

Tested on: BDF1 mice, P388 leukemia ip, median survival T/C
Experiment: NCI In Vivo Anticancer Drug Screen. Data for tumor model P388 Leukemia (intraperitoneal) in B6D2F1 (BDF1) mice
Conditions: endpoint: median survival time, higher = longer survival
How it was run: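 In tumour-bearing mice, survival after compound treatment is set against the vehicle group and given as a quotient.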

[1] = dose: 100.0 mg/kg/injection, schedule: Q01DX009 (ip), vehicle: saline with Tween-80
[2] = dose: 100.0 mg/kg/injection, schedule: Q04DX003 (ip), vehicle: saline with Tween-80
[3] = dose: 200.0 mg/kg/injection, schedule: Q01DX009 (ip), vehicle: saline with Tween-80
[4] = dose: 200.0 mg/kg/injection, schedule: Q04DX003 (ip), vehicle: saline with Tween-80
[5] = dose: 400.0 mg/kg/injection, schedule: Q01DX009 (ip), vehicle: saline with Tween-80
[6] = dose: 400.0 mg/kg/injection, schedule: Q04DX003 (ip), vehicle: saline with Tween-80
[7] = dose: 6.25 mg/kg/injection, schedule: Q01DX009 (ip), vehicle: saline
[8] = dose: 12.5 mg/kg/injection, schedule: Q01DX009 (ip), vehicle: saline
[9] = dose: 25.0 mg/kg/injection, schedule: Q01DX009 (ip), vehicle: saline
[10] = dose: 12.5 mg/kg/injection, schedule: Q01DX009 (ip), vehicle: water
[11] = dose: 25.0 mg/kg/injection, schedule: Q01DX009 (ip), vehicle: water
[12] = dose: 25.0 mg/kg/injection, schedule: Q04DX003 (ip), vehicle: water
[13] = dose: 50.0 mg/kg/injection, schedule: Q01DX009 (ip), vehicle: saline
[14] = dose: 100.0 mg/kg/injection, schedule: Q01DX009 (ip), vehicle: saline
[15] = dose: 100.0 mg/kg/injection, schedule: Q04DX003 (ip), vehicle: saline sonified
[16] = dose: 200.0 mg/kg/injection, schedule: Q04DX003 (ip), vehicle: saline sonified

Q: CC(=O)c1ccc2ccccc2c1O was tested. Which T/C (dose: 100.0 mg/kg/injection, schedule: Q01DX001 (ip), vehicle: other) did it give?
A: 90 % of control

Q: And the T/C [1]?
A: 104 % of control

Q: What about the T/C [2] of the same compound?
A: 109 % of control

Q: What about the T/C (dose: 175.0 mg/kg/injection, schedule: Q01DX009 (ip), vehicle: saline with Tween-80) of the same compound?
A: 122 % of control

Q: And the T/C (dose: 200.0 mg/kg/injection, schedule: Q01DX001 (ip), vehicle: other)?
A: 100 % of control

Q: And the T/C [3]?
A: 104 % of control

Q: And the T/C [4]?
A: 104 % of control

Q: What about the T/C (dose: 400.0 mg/kg/injection, schedule: Q01DX001 (ip), vehicle: other) of the same compound?
A: 95 % of control

Q: What about the T/C [5] of the same compound?
A: 118 % of control

Q: What about the T/C [6] of the same compound?
A: 104 % of control

Q: And the T/C (dose: 600.0 mg/kg/injection, schedule: Q01DX009 (ip), vehicle: saline with Tween-80)?
A: 113 % of control

Q: How did the T/C [7] turn out when Cc1c(CNc2ccc(C(=O)NC(CC(=O)O)C(=O)O)cc2)ccc2nc(N)nc(N)c12 (configuration not stated) was run?
A: 100 % of control

Q: What about the T/C [8] of the same compound?
A: 90 % of control

Q: What about the T/C (dose: 16.5 mg/kg/injection, schedule: Q04DX003 (ip), vehicle: saline with Tween-80) of the same compound?
A: 254 % of control

Q: What about the T/C (dose: 25.0 mg/kg/injection, schedule: Q04DX003 (ip), vehicle: saline with Tween-80) of the same compound?
A: 272 % of control

Q: What about the T/C (dose: 37.5 mg/kg/injection, schedule: Q04DX003 (ip), vehicle: saline with Tween-80) of the same compound?
A: 104 % of control

Q: How did the T/C (dose: 50.0 mg/kg/injection, schedule: Q01DX009 (ip), vehicle: saline with Tween-80) turn out when C(=Nc1ccccc1)c1ccc(C=Nc2ccccc2)cc1 was run?
A: 110 % of control

Q: What about the T/C [1] of the same compound?
A: 105 % of control

Q: What about the T/C [2] of the same compound?
A: 104 % of control

Q: And the T/C [3]?
A: 100 % of control

Q: And the T/C [4]?
A: 109 % of control

Q: And the T/C [6]?
A: 100 % of control

Q: What does the source list for O=P(N1CC=CCC1)(N1CC1)N1CC1?
A: T/C (dose: 2.2 mg/kg/injection, schedule: Q01DX009 (ip), vehicle: saline): 115 % of control; T/C (dose: 3.3 mg/kg/injection, schedule: Q01DX009 (ip), vehicle: saline): 105 % of control; T/C (dose: 5.0 mg/kg/injection, schedule: Q01DX009 (ip), vehicle: saline): 161 % of control; T/C [7]: 190 % of control; T/C (dose: 7.5 mg/kg/injection, schedule: Q01DX009 (ip), vehicle: saline): 195 % of control; T/C [8]: 245 % of control and 191 % of control; T/C [9]: 87 % of control and 90 % of control

Q: With COc1ccc(CNCCNCc2ccc(OC)cc2)cc1 as the compound, how does the T/C [10] read?
A: 98 % of control

Q: What about the T/C [11] of the same compound?
A: 100 % of control

Q: What about the T/C [12] of the same compound?
A: 95 % of control

Q: And the T/C (dose: 50.0 mg/kg/injection, schedule: Q01DX009 (ip), vehicle: water)?
A: 115 % of control

Q: And the T/C (dose: 50.0 mg/kg/injection, schedule: Q04DX003 (ip), vehicle: water)?
A: 95 % of control

Q: And the T/C (dose: 100.0 mg/kg/injection, schedule: Q01DX009 (ip), vehicle: water)?
A: 92 % of control and 107 % of control

Q: And the T/C (dose: 100.0 mg/kg/injection, schedule: Q04DX003 (ip), vehicle: water)?
A: 100 % of control and 109 % of control

Q: Which results are given for C[N+](C)(C)c1ncnc2c1ncn2C1CCCO1 (configuration not stated)?
A: T/C [13]: 100 % of control; T/C [14]: 109 % of control; T/C (dose: 100.0 mg/kg/injection, schedule: Q04DX003 (ip), vehicle: saline): 100 % of control; T/C (dose: 200.0 mg/kg/injection, schedule: Q04DX003 (ip), vehicle: saline): 100 % of control

Q: With COc1ccc(OC)c(C(=O)CC(O)(C(F)(F)F)C(F)(F)F)c1 as the compound, how does the T/C [1] read?
A: 95 % of control

Q: And the T/C [2]?
A: 120 % of control

Q: What about the T/C [3] of the same compound?
A: 108 % of control

Q: What about the T/C [4] of the same compound?
A: 110 % of control

Q: What about the T/C [5] of the same compound?
A: 104 % of control

Q: What about the T/C [6] of the same compound?
A: 100 % of control

Q: How did the T/C [9] turn out when O=C(O)CCNCc1ccccc1 was run?
A: 93 % of control

Q: What about the T/C [13] of the same compound?
A: 108 % of control

Q: And the T/C [14]?
A: 117 % of control

Q: What about the T/C (dose: 200.0 mg/kg/injection, schedule: Q01DX009 (ip), vehicle: saline) of the same compound?
A: 88 % of control

Q: Which results are given for COc1ccc(C(=O)NN2C(N)=NC(N)=NC2(C)C)cc1?
A: T/C (dose: 50.0 mg/kg/injection, schedule: Q04DX003 (ip), vehicle: saline sonified): 100 % of control; T/C [15]: 100 % of control; T/C [16]: 105 % of control

Q: With CC1(O)c2ccccc2-c2nc3ccccc3nc21 (configuration not stated) as the compound, how does the T/C [1] read?
A: 104 % of control

Q: What about the T/C [3] of the same compound?
A: 100 % of control

Q: What about the T/C [5] of the same compound?
A: 118 % of control

Q: What does the source list for O=C(c1ccccc1)c1ccccc1?
A: T/C (dose: 100.0 mg/kg/injection, schedule: Q01DX001 (ip), vehicle: Klucel (hydroxypropylcellulose) (HPC)): 100 % of control; T/C (dose: 200.0 mg/kg/injection, schedule: Q01DX001 (ip), vehicle: Klucel (hydroxypropylcellulose) (HPC)): 100 % of control; T/C (dose: 400.0 mg/kg/injection, schedule: Q01DX001 (ip), vehicle: Klucel (hydroxypropylcellulose) (HPC)): 116 % of control

Q: Which T/C (dose: 62.5 micrograms/kg/injection, schedule: Q01DX010 (ip), vehicle: saline) does the source give for O[C@H](CN1CC1)[C@@H](O)CN1CC1 here?
A: 235 % of control

Q: And the T/C (dose: 125.0 micrograms/kg/injection, schedule: Q01DX010 (ip), vehicle: saline)?
A: 230 % of control and 186 % of control

Q: What about the T/C (dose: 250.0 micrograms/kg/injection, schedule: Q01DX010 (ip), vehicle: saline) of the same compound?
A: 227 % of control and 187 % of control

Q: What about the T/C (dose: 500.0 micrograms/kg/injection, schedule: Q01DX010 (ip), vehicle: saline) of the same compound?
A: 116 % of control and 122 % of control

Q: How did the T/C (dose: 6.3 micrograms/kg/injection, schedule: Q## X009 (ip), vehicle: saline with Tween-80) turn out when C=C(C)C12OC3(c4ccccc4)OC1C1C4OC4(CO)C(O)C4(O)C(=O)C(C)=CC4C1(O3)C(C)C2OC(=O)/C=C/C=C/C=C/CCC (configuration not stated) was run?
A: 109 % of control

Q: What about the T/C (dose: 12.5 micrograms/kg/injection, schedule: Q## X009 (ip), vehicle: saline with Tween-80) of the same compound?
A: 106 % of control

Q: And the T/C (dose: 25.0 micrograms/kg/injection, schedule: Q## X009 (ip), vehicle: saline with Tween-80)?
A: 109 % of control

Q: What about the T/C (dose: 50.0 micrograms/kg/injection, schedule: Q## X009 (ip), vehicle: saline with Tween-80) of the same compound?
A: 106 % of control

Q: And the T/C (dose: 100.0 micrograms/kg/injection, schedule: Q## X009 (ip), vehicle: saline with Tween-80)?
A: 168 % of control

Q: With N=C(N)SCCC(=O)O as the compound, how does the T/C (dose: 50.0 mg/kg/injection, schedule: Q04DX003 (ip), vehicle: Klucel (hydroxypropylcellulose) (HPC)) read?
A: 109 % of control

Q: And the T/C (dose: 100.0 mg/kg/injection, schedule: Q01DX009 (ip), vehicle: Klucel (hydroxypropylcellulose) (HPC))?
A: 100 % of control

Q: What about the T/C (dose: 100.0 mg/kg/injection, schedule: Q04DX003 (ip), vehicle: Klucel (hydroxypropylcellulose) (HPC)) of the same compound?
A: 100 % of control

Q: And the T/C (dose: 200.0 mg/kg/injection, schedule: Q01DX009 (ip), vehicle: Klucel (hydroxypropylcellulose) (HPC))?
A: 110 % of control

Q: And the T/C (dose: 200.0 mg/kg/injection, schedule: Q04DX003 (ip), vehicle: Klucel (hydroxypropylcellulose) (HPC))?
A: 109 % of control

Q: What about the T/C (dose: 400.0 mg/kg/injection, schedule: Q01DX009 (ip), vehicle: Klucel (hydroxypropylcellulose) (HPC)) of the same compound?
A: 90 % of control

Q: For C[n+]1cc2ccccc2c2ccccc21, which T/C [10] is on record?
A: 95 % of control and 109 % of control

Q: What about the T/C (dose: 12.5 mg/kg/injection, schedule: Q04DX003 (ip), vehicle: water) of the same compound?
A: 105 % of control

Q: And the T/C (dose: 15.0 mg/kg/injection, schedule: Q01DX009 (ip), vehicle: water)?
A: 108 % of control

Q: What about the T/C [11] of the same compound?
A: 101 % of control and 115 % of control

Q: What about the T/C [12] of the same compound?
A: 114 % of control

Q: What does the source list for CC[n+]1cccc(NC(=O)c2ccc(NC(=O)c3ccc(C(=O)Nc4ccc(C(=O)Nc5ccc[n+](CC)c5)cc4)cc3)cc2)c1?
A: T/C (dose: 0.44 mg/kg/injection, schedule: Q04DX003 (ip), vehicle: saline): 118 % of control; T/C (dose: 0.88 mg/kg/injection, schedule: Q01DX009 (ip), vehicle: saline): 150 % of control; T/C (dose: 1.32 mg/kg/injection, schedule: Q01DX009 (ip), vehicle: saline): 163 % of control; T/C (dose: 2.0 mg/kg/injection, schedule: Q01DX009 (ip), vehicle: saline): 190 % of control; T/C (dose: 2.77 mg/kg/injection, schedule: Q01DX009 (ip), vehicle: saline): 204 % of control; T/C (dose: 3.0 mg/kg/injection, schedule: Q01DX009 (ip), vehicle: saline): 177 % of control; T/C (dose: 4.17 mg/kg/injection, schedule: Q01DX009 (ip), vehicle: saline): 191 % of control; T/C [7]: 183 % of control and 220 % of control; T/C (dose: 9.38 mg/kg/injection, schedule: Q01DX009 (ip), vehicle: saline): 237 % of control; T/C (dose: 11.0 mg/kg/injection, schedule: Q04DX003 (ip), vehicle: saline): 168 % of control; T/C [8]: 295 % of control; T/C (dose: 16.5 mg/kg/injection, schedule: Q04DX003 (ip), vehicle: saline): 200 % of control; T/C [9]: 90 % of control; T/C (dose: 25.0 mg/kg/injection, schedule: Q04DX003 (ip), vehicle: saline): 200 % of control; T/C (dose: 37.5 mg/kg/injection, schedule: Q04DX003 (ip), vehicle: saline): 181 % of control

Q: For COc1ccc2c(c1)CCC(CC(C)=O)C2=O (configuration not stated), which T/C [15] is on record?
A: 104 % of control

Q: And the T/C [16]?
A: 104 % of control

Q: And the T/C (dose: 400.0 mg/kg/injection, schedule: Q04DX003 (ip), vehicle: saline sonified)?
A: 104 % of control
